Consider four molecules from patent US20240226109A1, “CO-THERAPY WITH VECTOR AND NICOTINIC AGONIST” (OYSTER POINT PHARMA, INC., priority 2021, published 2024).

Test [1] addresses T1, nAChR subtype alpha3beta2 (Homo sapiens, UniProt P17787+P32297).
T1 construct: expressed in transfected cells
In words: nAChR agonist response (evoked current compared with ACh response) in cells expressing a nAChR subtype. Format: cell-based. Particulars: response relative to ACh response. The source says:
(§1) In general, a nAChR agonist is a full agonist if it evokes a response upon binding to a given receptor that is equal or greater to that of ACh.
(§2) nAChR agonist response, from which receptor activation can be determined can, for example, be generated using an appropriate cell-based assay. Cells designed to express a particular nAChR receptor subtype and generate an electrical current response when bound to and activated by a nAChR agonist can be used to characterize the agonist profile of a compound and the amount of receptor activation thus determined. An example of a generic protocol is described below.
(§3) Cells that express a particular human nAChR subtype are first exposed to ACh. ACh binds and activates the receptor, thereby evoking a current. The concentration of the ACh is chosen to elicit the maximum response of the receptor (e.g., 1280 micromolar ACh). This current is recorded as the ACh response and serves as the 100% nAChR agonist response and to which responses to other nAChR agonists are compared. […] The current evoked by exposure to the nAChR agonist is measured and recorded for each nAChR concentration. […] The nAChR agonist response is then calculated as a percentage of the ACh response.
(§4) A nAChR agonist evoking a response equal to or greater than the maximum ACh response determined at the same receptor type is a full agonist. […]

The target in test [2] is T2, nAChR subtype alpha4alpha6beta2 (Homo sapiens, UniProt P17787+P43681+Q15825).
T2 construct: expressed in transfected cells
The test is described as above. Format: cell-based. The settings on record: response relative to ACh response.
Excerpt: as §1, §2
(§5) Cells that express a particular human nAChR subtype are first exposed to ACh. ACh binds and activates the receptor, thereby evoking a current. […] This current is recorded as the ACh response and serves as the 100% nAChR agonist response and to which responses to other nAChR agonists are compared. After washing, the cells are exposed to a nAChR agonist at various concentrations (e.g., 0.1, 0.3, 1, 3, 10, 30, 100, and 300 micromolar). The current evoked by exposure to the nAChR agonist is measured and recorded for each nAChR concentration. This nAChR agonist response data is then normalized to unity versus the maximal ACh evoked current and plotted as a function of the logarithm of the nAChR agonist concentration. The nAChR agonist response is then calculated as a percentage of the ACh response.
(§6) A nAChR agonist evoking a response equal to or greater than the maximum ACh response determined at the same receptor type is a full agonist. In some cases, a nAChR agonist evoking a response of less than 100% of the ACh response may still be characterized a full agonist, taking into account experimental variability. […] In some cases, a nAChR agonist evoking 90% of the ACh response or greater is considered a full agonist. […] In some cases, a nAChR agonist evoking 80% of the ACh response or greater is considered a full agonist.

The next test has as its target T3, nAChR subtype alpha7 (Homo sapiens, UniProt P36544).
T3 construct: expressed in transfected cells
Described as above. Particulars: for agonist characterization at nAChR subtype alpha7: response relative to ACh response. In kind it is cell-based.
Excerpt: as §1, §2, §5, §6

Test [3] has as its target T4, nAChR subtype alpha4beta2 (Homo sapiens, UniProt P17787+P43681).
T4 construct: expressed in transfected cells
The description is as above. Format: cell-based. The settings on record: response relative to ACh response.
Excerpt: as §1, §2, §5, §6

Test [4] deals with T5, nAChR subtype alpha3alpha5beta4 (Homo sapiens).
T5 construct: expressed in transfected cells
Described as above. Format: cell-based. The settings on record: response relative to ACh response.
Excerpt: as §1, §2, §5, §6

Test [5] addresses T6, nAChR subtype alpha3beta4 (Homo sapiens, UniProt P30926+P32297).
T6 construct: expressed in transfected cells
The description is as above. In kind it is cell-based. Particulars: response relative to ACh response.
Excerpt: as §1, §2, §5, §6

Test [6] concerns the target T7, nAChR subtype alpha6beta2 (Homo sapiens, UniProt P17787+Q15825).
T7 construct: expressed in transfected cells
The test is described as above. Particulars: response relative to ACh response. In kind it is cell-based.
Excerpt: as §1, §2, §3, §4

The subject of test [7] is tear film. In words: Mesoscale discovery (MSD) assay of hNGFβ in porcine tears after lacrimal gland transduction. Format: in vivo, pigs (Sus scrofa domesticus). Particulars: pigs given AAV9-hNGFβ; Day 28 (0.03 mg varenicline solution each nostril) vs Day 21 and Day 35 (no nasal spray); data not shown.
The test system of test [8] is tear film. The test is described as follows: hNGF concentration in tear film collected on Schirmer test strips (ELISA), with and without intranasal varenicline. Format: in vivo, Dutch-Belted rabbits. The settings on record: rabbits given rAAV9.hNGF intralacrimally; intranasal varenicline on days 21, 28 and 41. How it is done: FIG. 8 is a plot showing the concentration of hNGF in tear film in animals treated with AAV.hNGF and varenicline. Protein concentration was measured using Schirmer tear strips to collect tear film from Dutch-belted rabbits at the indicated number of days following intralacrimal administration of AAV2.hNGF, AAV5.hNGF, or AAV9.hNGF. At days 21, 28, and 41, tear film was collected following the intranasal administration of the tear inducing agent, varenicline. Control animals had no injection of AAV.
A Schirmer tear test was performed to collect eye moisture from the animals on Days 7, 14, 21, 28, 41, and 42. Test strips were placed inside the lower eyelid for approximately 1 minute. The paper was removed and placed into separate tubes and frozen at −80° C. for subsequent analysis. Schirmer test strips were collected following intranasal administration of varenicline on Days 21, 28, and 41. Test strips were placed inside the lower eyelid for approximately 1 minute. The paper was removed and placed into separate tubes and frozen at −80° ° C. for subsequent analysis. Protein content absorbed onto Schirmer's test strips was analyzed for concentration of hNGF by ELISA assay.
A Schirmer tear test was performed to collect eye moisture from the animals on Days 7, 14, 21, 28, 41, and 42. […] Protein content absorbed onto Schirmer's test strips was analyzed for concentration of hNGF by ELISA assay.

In a further test the test system is subjects with dry eye. Particulars: 28-day course of 0.1% ophthalmic formulation, Phase II; cited from earlier work.

T3 sequence (P36544 23-502): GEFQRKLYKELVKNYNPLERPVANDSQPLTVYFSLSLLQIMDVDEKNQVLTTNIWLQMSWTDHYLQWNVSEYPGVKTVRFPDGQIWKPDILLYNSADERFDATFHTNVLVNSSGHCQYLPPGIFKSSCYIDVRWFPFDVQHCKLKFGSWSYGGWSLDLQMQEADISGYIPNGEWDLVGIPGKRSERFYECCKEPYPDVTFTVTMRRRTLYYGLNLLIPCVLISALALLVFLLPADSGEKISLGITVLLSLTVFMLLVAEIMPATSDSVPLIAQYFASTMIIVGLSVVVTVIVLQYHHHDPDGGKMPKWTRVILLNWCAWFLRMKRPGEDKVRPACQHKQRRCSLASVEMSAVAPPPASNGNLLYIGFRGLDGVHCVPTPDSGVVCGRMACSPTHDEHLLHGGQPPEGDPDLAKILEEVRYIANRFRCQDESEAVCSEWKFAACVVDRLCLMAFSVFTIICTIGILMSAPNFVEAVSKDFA
T5 sequence (P32297 32-505): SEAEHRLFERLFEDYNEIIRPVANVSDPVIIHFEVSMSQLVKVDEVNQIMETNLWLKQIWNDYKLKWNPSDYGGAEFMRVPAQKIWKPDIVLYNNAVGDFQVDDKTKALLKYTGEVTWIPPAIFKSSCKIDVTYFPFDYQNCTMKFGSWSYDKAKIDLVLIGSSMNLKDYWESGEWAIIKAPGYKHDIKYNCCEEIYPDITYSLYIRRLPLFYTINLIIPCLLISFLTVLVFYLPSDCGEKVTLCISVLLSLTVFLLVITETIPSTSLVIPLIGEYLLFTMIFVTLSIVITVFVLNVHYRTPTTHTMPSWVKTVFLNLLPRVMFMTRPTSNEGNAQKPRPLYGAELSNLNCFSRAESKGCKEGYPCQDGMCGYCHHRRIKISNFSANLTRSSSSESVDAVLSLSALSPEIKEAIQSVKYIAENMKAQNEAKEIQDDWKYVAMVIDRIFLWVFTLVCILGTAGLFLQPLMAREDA
T5 sequence (P30532 23-468 partner): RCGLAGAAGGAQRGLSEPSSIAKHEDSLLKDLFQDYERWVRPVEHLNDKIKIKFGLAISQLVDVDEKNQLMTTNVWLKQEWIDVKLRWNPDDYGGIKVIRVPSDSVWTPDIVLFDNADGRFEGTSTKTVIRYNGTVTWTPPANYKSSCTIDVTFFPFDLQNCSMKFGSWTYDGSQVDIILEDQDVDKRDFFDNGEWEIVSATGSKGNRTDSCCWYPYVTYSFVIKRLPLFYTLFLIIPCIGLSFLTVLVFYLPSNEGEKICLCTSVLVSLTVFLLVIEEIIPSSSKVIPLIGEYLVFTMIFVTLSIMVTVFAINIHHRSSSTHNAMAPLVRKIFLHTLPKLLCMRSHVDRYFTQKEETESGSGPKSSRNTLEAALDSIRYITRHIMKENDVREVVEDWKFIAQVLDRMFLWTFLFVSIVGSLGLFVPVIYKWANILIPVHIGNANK
T5 sequence (P30926 22-498, further chain): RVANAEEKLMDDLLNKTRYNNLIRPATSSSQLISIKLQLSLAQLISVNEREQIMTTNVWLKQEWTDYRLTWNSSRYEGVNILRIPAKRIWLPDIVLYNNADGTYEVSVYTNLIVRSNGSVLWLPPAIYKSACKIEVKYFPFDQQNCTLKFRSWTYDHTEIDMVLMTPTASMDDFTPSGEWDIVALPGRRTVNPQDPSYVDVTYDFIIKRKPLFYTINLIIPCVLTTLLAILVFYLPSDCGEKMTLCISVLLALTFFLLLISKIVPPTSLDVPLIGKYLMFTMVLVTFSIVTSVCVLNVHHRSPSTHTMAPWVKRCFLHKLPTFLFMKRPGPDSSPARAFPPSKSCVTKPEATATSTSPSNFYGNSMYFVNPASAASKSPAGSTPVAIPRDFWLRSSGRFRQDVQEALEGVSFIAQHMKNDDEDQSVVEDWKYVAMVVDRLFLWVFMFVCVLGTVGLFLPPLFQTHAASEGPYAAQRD
T6 sequence (P32297 32-505): as the sequence (P32297 32-505) above
T6 sequence (P30926 22-498): as the sequence (P30926 22-498, further chain) above
T2 sequence (P43681 29-627 limits assumed): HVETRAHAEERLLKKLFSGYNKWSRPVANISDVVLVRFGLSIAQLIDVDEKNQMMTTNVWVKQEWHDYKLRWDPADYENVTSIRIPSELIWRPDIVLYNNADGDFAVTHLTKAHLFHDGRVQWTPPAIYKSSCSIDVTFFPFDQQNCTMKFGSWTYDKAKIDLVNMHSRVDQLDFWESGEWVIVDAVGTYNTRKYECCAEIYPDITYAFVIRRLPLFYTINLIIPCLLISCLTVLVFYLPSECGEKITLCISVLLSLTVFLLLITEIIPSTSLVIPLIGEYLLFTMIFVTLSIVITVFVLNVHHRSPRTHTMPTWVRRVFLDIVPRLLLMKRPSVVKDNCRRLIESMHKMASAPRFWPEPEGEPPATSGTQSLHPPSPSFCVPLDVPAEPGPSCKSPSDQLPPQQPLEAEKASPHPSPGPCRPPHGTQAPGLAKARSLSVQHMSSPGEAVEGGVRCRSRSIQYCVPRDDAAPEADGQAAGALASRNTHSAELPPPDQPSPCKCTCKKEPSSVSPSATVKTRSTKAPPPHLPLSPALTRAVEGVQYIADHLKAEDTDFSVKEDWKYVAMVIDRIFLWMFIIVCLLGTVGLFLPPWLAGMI
T2 sequence (Q15825 26-494): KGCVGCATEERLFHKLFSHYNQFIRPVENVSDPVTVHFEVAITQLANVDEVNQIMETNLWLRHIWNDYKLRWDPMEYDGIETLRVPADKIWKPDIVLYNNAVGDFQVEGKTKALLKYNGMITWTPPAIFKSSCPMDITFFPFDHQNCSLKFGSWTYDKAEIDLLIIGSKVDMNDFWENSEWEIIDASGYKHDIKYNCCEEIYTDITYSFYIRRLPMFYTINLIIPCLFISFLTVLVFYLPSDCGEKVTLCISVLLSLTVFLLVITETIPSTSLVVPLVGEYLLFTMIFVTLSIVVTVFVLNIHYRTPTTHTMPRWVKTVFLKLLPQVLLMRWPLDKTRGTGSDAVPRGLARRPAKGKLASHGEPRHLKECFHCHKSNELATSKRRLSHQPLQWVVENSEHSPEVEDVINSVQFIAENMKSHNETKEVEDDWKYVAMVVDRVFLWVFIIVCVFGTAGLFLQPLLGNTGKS
T2 sequence (P17787 26-502): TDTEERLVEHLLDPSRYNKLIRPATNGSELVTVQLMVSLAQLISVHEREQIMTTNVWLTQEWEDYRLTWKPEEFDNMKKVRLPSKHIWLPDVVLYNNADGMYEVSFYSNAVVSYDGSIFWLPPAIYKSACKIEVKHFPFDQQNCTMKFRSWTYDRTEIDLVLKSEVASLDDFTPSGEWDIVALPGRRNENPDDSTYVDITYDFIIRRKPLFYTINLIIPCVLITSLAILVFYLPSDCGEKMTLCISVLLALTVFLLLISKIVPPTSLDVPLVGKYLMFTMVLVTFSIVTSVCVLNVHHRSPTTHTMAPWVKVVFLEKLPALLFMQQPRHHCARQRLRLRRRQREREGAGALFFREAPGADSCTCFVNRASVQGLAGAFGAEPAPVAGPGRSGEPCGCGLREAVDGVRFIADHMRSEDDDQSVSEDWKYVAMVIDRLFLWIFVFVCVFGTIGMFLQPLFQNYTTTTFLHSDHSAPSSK
T4 sequence (P43681 29-627 limits assumed): as the sequence (P43681 29-627 limits assumed) above
T4 sequence (P17787 26-502): as the sequence (P17787 26-502) above
T1 sequence (P32297 32-505): as the sequence (P32297 32-505) above
T1 sequence (P17787 26-502): as the sequence (P17787 26-502) above
T7 sequence (Q15825 26-494): as the sequence (Q15825 26-494) above
T7 sequence (P17787 26-502): as the sequence (P17787 26-502) above

In the case of `C(=C\[C@H]1CCNC1)/c1cncnc1` [Compound 1, (R)-5-((E)-2-pyrrolidin-3-ylvinyl)pyrimidine], the “agonist characterization at nAChR subtype alpha3beta2” value in [1] is reported as “partial agonist”. In [2], the “agonist characterization at nAChR subtype alpha4alpha6beta2” value is given as “full agonist”. For the same molecule, the “agonist characterization at nAChR subtype alpha7” value on nAChR subtype alpha7 is “weak partial agonist”. In [3], the “agonist characterization at nAChR subtype alpha4beta2” value is “full agonist”. Besides, in [4], the “agonist characterization at nAChR subtype alpha3alpha5beta4” value is on record as “full agonist”. For the same molecule, the “agonist characterization at nAChR subtype alpha3beta4” value in test [5] was “full agonist”.

In the case of `C(=C\[C@H]1CCNC1)/c1cncnc1.O=C(O)CC(O)(CC(=O)O)C(=O)O` [compound 1 citrate, (R)-5-((E)-2-pyrrolidin-3-ylvinyl)pyrimidine mono-citrate], the “percent of the maximal ACh-evoked current” value on nAChR subtype alpha7 (300 micromolar concentration, subtype alpha7) was 25%.

Take `O=C(O)C(O)C(O)C(=O)O.c1cnc2cc3c(cc2n1)C1CNCC3C1` [Varenicline, varenicline]: in test [6], the “agonist characterization at nAChR subtype alpha6beta2” value was “partial agonist”. Further, the “effect of nasal spray on tear hNGFβ protein concentration” value in the test with tear film [7] is “increased tear hNGFβ protein concentration”. Further, the “increase of hNGF concentration in the Schirmer strip over the levels measured at the 7 and 14 day collections” value in the test with tear film [8] is recorded as “up to 3 fold”. Besides, the “agonist characterization at nAChR subtype alpha4alpha6beta2” value in test [2] was “partial agonist”. Moreover, the “agonist characterization at nAChR subtype alpha7” value on nAChR subtype alpha7 is given as “full agonist”. The “agonist characterization at nAChR subtype alpha4beta2” value in test [3] is reported as “partial agonist”. For the same molecule, the “agonist characterization at nAChR subtype alpha3alpha5beta4” value in [4] was “partial agonist”. Moreover, in test [5], the “agonist characterization at nAChR subtype alpha3beta4” value is reported as “partial agonist”.

As for “Tβ4: 43-amino acid peptide, SEQ ID NO: 26; tested as 0.1% Tβ4 ophthalmic formulation (SDKPDMAEIEKFDKSKLKKTETQEKNPLPSKETIEQEKQAGES; listed as Homo sapiens)”, in the test with subjects with dry eye, the “effect on corneal staining” value was “significant positive effects” and the “effect on ocular discomfort” value is “significant positive effects”.
